{"source": "patent US20150005347A1", "about": "“NITROGEN-CONTAINING HETEROCYCLIC DERIVATIVE HAVING 2-IMINO GROUP AND PEST CONTROL AGENT INCLUDING THE SAME” (MEIJI SEIKA PHARMA CO., LTD., priority 2012, published 2015)", "system": "Nephotettix cincticeps", "test": "Pest control test of Nephotettix cincticeps, soil irrigation treatment", "format": "in vivo", "conditions": "for % Mortality, Test Example 14 Nephotettix cincticeps: soil irrigation treatment", "protocol": "Test Example 14 Pest Control Test of Nephotettix cincticeps\nA rice seedling in pot culture was subjected to soil irrigation treatment with a drug solution of the compound of the present invention at a predetermined concentration, which had been prepared so as to be a 10% acetone water. Three days after the treatment, five second instar larvae of Nephotettix cincticeps were each released thereto. Thereafter, the larvae were left to stand in a thermostatic chamber (16 hours of light period-8 hours of dark period) at 25° C. […] The test was performed in duplicate.\nMortality of larvae(%)={number of dead larvae/(number of survived larvae+number of dead larvae)}×100", "data": [{"molecule": "FC(F)(F)C(=S)/N=c1\\ccccn1Cc1ccc(Cl)nc1", "note": "[Compound 1-20, N-[1-((6-chloropyridin-3-yl)methyl)pyridin-2(1H)-ylidene]-2,2,2-trifluoroethanethioamide]", "values": [{"measurement": "% Mortality, Test Example 14 Nephotettix cincticeps", "setting": "0.0001 mg/pot", "value": 67, "unit": "%"}, {"measurement": "% Mortality, Test Example 14 Nephotettix cincticeps", "setting": "0.001 mg/pot", "value": 67, "unit": "%"}, {"measurement": "% Mortality, Test Example 14 Nephotettix cincticeps", "setting": "0.01 mg/pot", "value": 100, "unit": "%"}, {"measurement": "mortality of larvae", "setting": "soil irrigation, 0.05 mg/seedling, three days after release", "value": "≥ 80", "unit": "%"}]}]}
